Each structure is given as a SMILES string.

Usually melting point stands for the temperature, or range, at which the solid turns liquid. Molecule `COC(=O)c1csc(CN2C[C@@H](c3ccc(C#N)cc3)[C@]3(C2)C(=O)N(c2cc(Cl)cc(Cl)c2)C(=O)N3C)c1.Cl` (stereo in doubt) registered a melting point of 204 to 207 °C.

Consider `CN1C(=O)N(c2cc(Cl)cc(Cl)c2)C(=O)[C@]12CN(CN1C[C@H](c3ccc(C#N)cc3)[C@@]3(C1)C(=O)N(c1cc(Cl)cc(Cl)c1)C(=O)N3C)C[C@H]2c1ccc(C#N)cc1` (hydrate or solvate) [Example 6a, Meso Aminal Dimer of 4-[3-(3,5-Dichlorophenyl)-1-methyl-2,4-dioxo-1,3,7-triazaspiro[4.4]non-9-yl]-benzonitrile], for which the melting point is 79 to 109 °C. For the molecule `CN1C(=O)N(c2cc(Cl)cc(Cl)c2)C(=O)[C@]12CN(CN1C[C@@H](c3ccc(C#N)cc3)[C@]3(C1)C(=O)N(c1cc(Cl)cc(Cl)c1)C(=O)N3C)C[C@H]2c1ccc(C#N)cc1` (racemic) (hydrate or solvate) [Example 6b, Racemic Aminal Dimer of 4-[3-(3,5-Dichlorophenyl)-1-methyl-2,4-dioxo-1,3,7-triazaspiro[4.4]non-9-yl]-benzonitrile], the melting point lay in the range of 31 to 47 °C.
